Laboratory results published in PMC7203576 (Frontiers in Microbiology, 2020).
Where “and” joins values, the source holds several entries; their conditions need not be identical. Identical values can stand only once. Like-named read-outs stand apart in the source and are kept apart here. Marks after values point to notes of the source that are not given here. Residues, ends and D or L forms follow the SMILES beside them. *: point of attachment. Tridecanoyl(3R-OH,11-Me) = CCC(C)CCCCCCC[C@@H](O)CC(=O)*

Assays:
[1] = test system: Magnaporthe oryzae Triticum (MoT) isolate BTJP 4 (5)
[2] = test system: Magnaporthe oryzae Triticum (MoT) on detached wheat leaves cv. BARI Gom 24 (Prodip); conditions: in vivo
[3] = test system: Magnaporthe oryzae Triticum (MoT) conidia; conditions: 50 μg/ml

Gageostatin A [reference compound]
Activity against MoT [1]: Inactive

CCCc1c(O)cc(O)c(CCC)c1O [2,4-Dipropylphloroglucinol (DPPG), 2,4-Dipropylphloroglucinol, reference compound]
Activity against MoT [1]: Inactive

CCCCCCCC/C=C\CCCCCCCc1cc(O)cc(O)c1 [5-(8Z-Heptadecenyl) resorcinol, reference compound]
Activity against MoT [1]: Inactive

CC(=O)c1c(O)cc(O)cc1O [Monoacetylphloroglucinol (MAPG), Monoacetylphloroglucinol, reference compound]
Activity against MoT [1]: Inactive

CN[C@@H]1C[C@H]2O[C@@](C)([C@@H]1OC)n1c3ccccc3c3c4c(c5c6ccccc6n2c5c31)C(=O)NC4 [Staurosporine, reference compound]
Activity against MoT [1]: Active

Gageostatin B [reference compound]
Activity against MoT [1]: Inactive

Gageotetrin A [reference compound]
Activity against MoT [1]: Inactive

COC1=CC(=O)C(O)=C(CCCCCCC/C=C\CCCCCCCC2=C(O)C(=O)C=C(OC)C2=O)C1=O [Ardisiaquinone A, reference compound]
Activity against MoT [1]: Inactive

Gageopeptide D
Average lesion length of wheat blast on detached leaves [2]: 1.8 ± 0.1 mm | Activity against MoT [1]: Active | Minimum inhibitory concentration (MIC) on mycelial growth [1]: 2.5 μg/disk | Morphology of treated hyphae (microscopy) [1]: disruption of normal polar growth of hyphae by inducing excessive branching and swelling of hyphal tips | Mycelial growth inhibition at the MIC [1]: 20 ± 1.7% | Percent inhibition of radial growth (PIRG) of mycelia [1]: 45.7 ± 1.6% and 30.5 ± 0.9% and 27.6 ± 0.9% | Germinated conidia (% ± SE) ([3]; 0 h): 0 ± 0^f % | Major morphological change/developmental transitions in the treated conidia ([3]; 0 h): No germination | Major morphological change/developmental transitions in the treated conidia ([3]; 6 h): Germinated with a short germ tube | Major morphological change/developmental transitions in the treated conidia ([3]; 12 h): Deformed germ tube (swollen) | Major morphological change/developmental transitions in the treated conidia ([3]; 24 h): No appressoria formed; no mycelial growth took place | Conidia with abnormally swollen (deformed) germ tubes ([3]; after 12 h): 25 ± 1.7%

Gageostatin C [reference compound]
Activity against MoT [1]: Inactive

CC[C@H]1/C=C/C=C/C[C@@H](C)[C@H](O)[C@@](C)(O)C(=O)[C@@H](C)[C@H](O)[C@@H](C)C(=O)[C@@H](C)[C@H](O)[C@@H](C)/C=C/C(=O)O[C@@H]2[C@H](C)[C@H](CC1)O[C@@]1(O[C@@H](C[C@@H](C)O)[C@@H](C)CC1=O)[C@H]2C [Oligomycin B, reference compound]
Activity against MoT [1]: Active

CC1(C)S[C@@H]2[C@H](NC(=O)Cc3ccccc3)C(=O)N2[C@H]1C(=O)O [Penicillin G, reference compound]
Activity against MoT [1]: Inactive

C[C@H]1CCC/C=C\C=C\[C@H](O)C[C@@H](O)C/C=C\C=C\[C@@H](OC(=O)CCC(=O)O[C@H]2O[C@@H](CO)[C@H](O)[C@@H](O)[C@@H]2O)C/C=C/C=C\C(=O)O1 [Macrolactin W, reference compound]
Activity against MoT [1]: Inactive

CCCCCCCC/C=C\CCCCCCCc1cc(O)c(C)c(O)c1 [2-Methyl-5-(8Z-heptadecenyl) resorcinol, reference compound]
Activity against MoT [1]: Inactive

CC[C@@H](O)C[C@@H]1CC[C@@H](O)[C@@H](C)C(=O)O[C@@H](C)C[C@H]2CC[C@H](O2)[C@H](C)C(=O)O1 [Feigrisolide C, reference compound]
Activity against MoT [1]: Active

Oligomycin F [reference compound]
Activity against MoT [1]: Active

Gageotetrin C [reference compound]
Activity against MoT [1]: Inactive

Neomycin [reference compound]
Activity against MoT [1]: Active

CC(=O)c1c(O)cc(O)c(C(C)=O)c1O [2,4-Diacetylphloroglucinol (DAPG), 2,4-Diacetylphloroglucinol, reference compound]
Activity against MoT [1]: Inactive

CCC(O)CC1CCC(C(C)C(=O)OC(C)CC2CCC(C(C)C(=O)O)O2)O1 (stereo not drawn) [Bonactin, reference compound]
Activity against MoT [1]: Active

C[C@@H]1C/C=C/C=C/C=C/C=C/[C@H](O[C@@H]2O[C@H](C)[C@@H](O)[C@H](N)[C@@H]2O)C[C@@H]2O[C@](O)(C[C@@H](O)C[C@H]3O[C@@H]3/C=C/C(=O)O1)C[C@H](O)[C@H]2C(=O)O [Natamycin, reference compound]
Activity against MoT [1]: Inactive

Gageopeptide B
Average lesion length of wheat blast on detached leaves [2]: 1.6 ± 0.2 mm | Activity against MoT [1]: Active | Minimum inhibitory concentration (MIC) on mycelial growth [1]: 10.0 μg/disk and 10 μg/disk | Morphology of treated hyphae (microscopy) [1]: swelling of hyphal cells, hyper-branching, loss of apical growth, and swelling of hyphal tips | Mycelial growth inhibition at the MIC [1]: 11.5 ± 1.6% | Percent inhibition of radial growth (PIRG) of mycelia [1]: 54.3 ± 3.3% | Germinated conidia (% ± SE) ([3]; 0 h): 0 ± 0^f % | Major morphological change/developmental transitions in the treated conidia ([3]; 0 h): No germination | Major morphological change/developmental transitions in the treated conidia ([3]; 6 h): Germinated with a short germ tube | Major morphological change/developmental transitions in the treated conidia ([3]; 12 h): Deformed germ tube (swollen) | Major morphological change/developmental transitions in the treated conidia ([3]; 24 h): No appressoria formed; no mycelial growth took place | Conidia with abnormally swollen (deformed) germ tubes ([3]; after 12 h): 51 ± 2.1%

CCCCCC[C@H]1C(=O)O[C@H](C)[C@H](NC(=O)c2cccc(NC=O)c2O)C(=O)O[C@@H](C)[C@@H]1OC(=O)CC(C)C [Antimycin-A, reference compound]
Activity against MoT [1]: Active

Macrolactin B [reference compound]
Activity against MoT [1]: Active

CC(=O)c1c(O)c(C(C)=O)c(O)c(C(C)=O)c1O [2,4,6-Triacetylphloroglucinol (TAPG 3), 2,4,6-Triacetylphloroglucinol, reference compound]
Activity against MoT [1]: Inactive

Gageopeptide C
Average lesion length of wheat blast on detached leaves [2]: 1.8 ± 0.1 mm | Activity against MoT [1]: Active | Minimum inhibitory concentration (MIC) on mycelial growth [1]: 2.5 μg/disk | Morphology of treated hyphae (microscopy) [1]: extensive branching, irregular growth, and swelling in MoT hyphae | Mycelial growth inhibition at the MIC [1]: 42.9 ± 1.6% | Percent inhibition of radial growth (PIRG) of mycelia [1]: 58.1 ± 0.9% and 54.3 ± 1.6% and 49.5 ± 0.9% | Germinated conidia (% ± SE) ([3]; 0 h): 0 ± 0^f % | Major morphological change/developmental transitions in the treated conidia ([3]; 0 h): No germination | Major morphological change/developmental transitions in the treated conidia ([3]; 6 h): Germinated with a short germ tube | Major morphological change/developmental transitions in the treated conidia ([3]; 12 h): Deformed germ tube (swollen) | Major morphological change/developmental transitions in the treated conidia ([3]; 24 h): 30% Normal appressoria and 11% abnormal appressoria (low melanization) formed but no mycelial growth took place | Conidia with abnormally swollen (deformed) germ tubes ([3]; after 12 h): 10 ± 1.5% | Conidia producing abnormal appressoria (low melanization) ([3]; after 24 h): 11 ± 0.7% and 11% | Conidia producing normal appressoria ([3]; after 24 h): 30 ± 0.7% and 30%

CCC(C)CCCCCCC[C@@H](O)CC(=O)N[C@@H](CC(C)C)C(=O)N[C@@H](CCC(=O)O)C(=O)N[C@@H](CC(C)C)C(=O)N[C@@H](CC(C)C)C(=O)O (stereo partly drawn) [Gageopeptide A] ({Tridecanoyl(3R-OH,11-Me)}-LELL-OH)
Average lesion length of wheat blast on detached leaves [2]: 1.5 ± 0.2 mm | Activity against MoT [1]: Active | Minimum inhibitory concentration (MIC) on mycelial growth [1]: 10.0 μg/disk and 10 μg/disk | Morphology of treated hyphae (microscopy) [1]: remarkable increase in branch frequency per unit length of hyphae, reduced polar growth, and irregular swelling of the hyphal tips | Mycelial growth inhibition at the MIC [1]: 12.5 ± 1.8% | Percent inhibition of radial growth (PIRG) of mycelia [1]: 50.5 ± 0.9% | Germinated conidia (% ± SE) ([3]; 0 h): 0 ± 0^f % | Major morphological change/developmental transitions in the treated conidia ([3]; 0 h): No germination | Major morphological change/developmental transitions in the treated conidia ([3]; 6 h): Germinated with a short germ tube | Major morphological change/developmental transitions in the treated conidia ([3]; 12 h): Normal germ tube | Major morphological change/developmental transitions in the treated conidia ([3]; 24 h): Normal appressoria formed; no mycelial growth took place | Conidia with normal germ tube ([3]; after 12 h): 31 ± 1.7% | Conidia producing normal appressoria ([3]; after 24 h): 27 ± 1.5% | Inhibition of mycelial growth from germinated conidia ([3]; 24 h): 100%

C[C@@H]1CCC/C=C/C=C/[C@H](O)C[C@@H](O)C/C=C\C=C\[C@@H](O)C/C=C/C=C\C(=O)O1 [Macrolactin A, reference compound]
Activity against MoT [1]: Inactive

COc1ccc2c(c[n+](C)c3c4cc5c(cc4ccc23)OCO5)c1OC [Chelerythrine chloride, reference compound]
Activity against MoT [1]: Active

Gageotetrin B
Average lesion length of wheat blast on detached leaves [2]: 1.5 ± 0.1 mm | Activity against MoT [1]: Active | Minimum inhibitory concentration (MIC) on mycelial growth [1]: 1.5 μg/disk | Morphology of treated hyphae (microscopy) [1]: coarse, loss of radial growth, and irregular swelling on the tips | Mycelial growth inhibition at the MIC [1]: 22.9 ± 1.6% | Percent inhibition of radial growth (PIRG) of mycelia [1]: 60.9 ± 2.5% and 59 ± 0.9% and 51.4 ± 1.7% | Germinated conidia (% ± SE) ([3]; 0 h): 0 ± 0^f % | Major morphological change/developmental transitions in the treated conidia ([3]; 0 h): No germination | Major morphological change/developmental transitions in the treated conidia ([3]; 6 h): Germinated with a short germ tube | Major morphological change/developmental transitions in the treated conidia ([3]; 12 h): Deformed germ tube (swollen) | Major morphological change/developmental transitions in the treated conidia ([3]; 24 h): Abnormal appressoria formed; no mycelial growth took place | Conidia with abnormally swollen (deformed) germ tubes ([3]; after 12 h): 41 ± 3.8%

Oc1cc(O)cc(O)c1 [Phloroglucinol (PG), Phloroglucinol, reference compound]
Activity against MoT [1]: Inactive
